Test results taken from PubChem BioAssay (NCI).
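48-hour exposure; five concentrations; linearly interpolated endpoints. Abbreviation: GI50, concentration required for 50% inhibition of growth. TGI: total growth inhibition.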

Key:
Assay in all cases: NCI-60 cell line screen, 48 h
MCF7 breast = tested on: MCF7 breast
MOLT-4 leukemia = tested on: MOLT-4 leukemia
HCT-15 colon = tested on: HCT-15 colon
HL-60(TB) leukemia = tested on: HL-60(TB) leukemia
KM12 colon = tested on: KM12 colon
SK-MEL-28 melanoma = tested on: SK-MEL-28 melanoma
SK-MEL-2 melanoma = tested on: SK-MEL-2 melanoma
SF-295 CNS = tested on: SF-295 CNS
SN12C renal = tested on: SN12C renal
IGROV1 ovarian = tested on: IGROV1 ovarian
UACC-257 melanoma = tested on: UACC-257 melanoma
PC-3 prostate = tested on: PC-3 prostate
BT-549 breast = tested on: BT-549 breast
OVCAR-4 ovarian = tested on: OVCAR-4 ovarian
RXF 393 renal = tested on: RXF 393 renal
HOP-92 NSCLC = tested on: HOP-92 NSCLC
OVCAR-5 ovarian = tested on: OVCAR-5 ovarian
786-0 renal = tested on: 786-0 renal
HCC-2998 colon = tested on: HCC-2998 colon
EKVX NSCLC = tested on: EKVX NSCLC
DU-145 prostate = tested on: DU-145 prostate
CAKI-1 renal = tested on: CAKI-1 renal
U251 CNS = tested on: U251 CNS
HCT-116 colon = tested on: HCT-116 colon
SK-OV-3 ovarian = tested on: SK-OV-3 ovarian
SK-MEL-5 melanoma = tested on: SK-MEL-5 melanoma
K-562 leukemia = tested on: K-562 leukemia
A498 renal = tested on: A498 renal
NCI-H23 lung = tested on: NCI-H23 lung
MALME-3M melanoma = tested on: MALME-3M melanoma
NCI-H226 lung = tested on: NCI-H226 lung
M14 melanoma = tested on: M14 melanoma
LOX IMVI melanoma = tested on: LOX IMVI melanoma
HOP-62 NSCLC = tested on: HOP-62 NSCLC
HT29 colon = tested on: HT29 colon
NCI-H460 lung = tested on: NCI-H460 lung
SF-539 CNS = tested on: SF-539 CNS
OVCAR-3 ovarian = tested on: OVCAR-3 ovarian
CCRF-CEM leukemia = tested on: CCRF-CEM leukemia
UO-31 renal = tested on: UO-31 renal
OVCAR-8 ovarian = tested on: OVCAR-8 ovarian
SR leukemia = tested on: SR leukemia
NCI-H522 lung = tested on: NCI-H522 lung
A549 NSCLC = tested on: A549 NSCLC
UACC-62 melanoma = tested on: UACC-62 melanoma
MDA-MB-435 = tested on: MDA-MB-435
SNB-75 CNS = tested on: SNB-75 CNS
RPMI-8226 leukemia = tested on: RPMI-8226 leukemia
SW-620 colon = tested on: SW-620 colon
NCI/ADR-RES ovarian = tested on: NCI/ADR-RES ovarian
SNB-19 CNS = tested on: SNB-19 CNS
MDA-MB-231 breast = tested on: MDA-MB-231 breast
TK-10 renal = tested on: TK-10 renal
SF-268 CNS = tested on: SF-268 CNS
ACHN renal = tested on: ACHN renal
COLO 205 colon = tested on: COLO 205 colon

With `Cn1ccc(=O)c2c(O)c3ccccc3c(O)c21` the GI50 (MCF7 breast) was over 100 µM, the TGI (MCF7 breast) was over 100 µM and the GI50 (MOLT-4 leukemia) was 80.9 µM. The TGI (MOLT-4 leukemia) was over 100 µM, the GI50 (HCT-15 colon) was over 66.1 µM and the TGI (HCT-15 colon) was over 100 µM. For the same compound, the GI50 (HL-60(TB) leukemia) was over 100 µM, the TGI (HL-60(TB) leukemia) was over 100 µM and the GI50 (KM12 colon) was over 70.1 µM. It also gave a TGI (KM12 colon) of over 100 µM, a GI50 (SK-MEL-28 melanoma) of over 100 µM and a TGI (SK-MEL-28 melanoma) of over 100 µM. It also gave a GI50 (SK-MEL-2 melanoma) of over 100 µM, a TGI (SK-MEL-2 melanoma) of over 100 µM and a GI50 (SF-295 CNS) of 64.3 µM. For the same compound, the TGI (SF-295 CNS) was over 100 µM, the GI50 (SN12C renal) was 78.1 µM and the TGI (SN12C renal) was over 100 µM. For the same compound, the GI50 (IGROV1 ovarian) was over 100 µM, the TGI (IGROV1 ovarian) was over 100 µM and the GI50 (UACC-257 melanoma) was over 100 µM. The TGI (UACC-257 melanoma) was over 100 µM, the GI50 (PC-3 prostate) was over 26.6 µM and the TGI (PC-3 prostate) was over 100 µM. The GI50 (BT-549 breast) was over 100 µM, the TGI (BT-549 breast) was over 100 µM and the GI50 (OVCAR-4 ovarian) was over 100 µM. For the same compound, the TGI (OVCAR-4 ovarian) was over 100 µM, the GI50 (RXF 393 renal) was over 100 µM and the TGI (RXF 393 renal) was over 100 µM. The GI50 (HOP-92 NSCLC) was over 100 µM, the TGI (HOP-92 NSCLC) was over 100 µM and the GI50 (OVCAR-5 ovarian) was over 100 µM. For the same compound, the TGI (OVCAR-5 ovarian) was over 100 µM, the GI50 (786-0 renal) was over 100 µM and the TGI (786-0 renal) was over 100 µM. It also gave a GI50 (HCC-2998 colon) of 20.3 µM, a TGI (HCC-2998 colon) of over 100 µM and a GI50 (EKVX NSCLC) of over 100 µM. It also gave a TGI (EKVX NSCLC) of over 100 µM, a GI50 (DU-145 prostate) of over 100 µM and a TGI (DU-145 prostate) of over 100 µM. The GI50 (CAKI-1 renal) was 57 µM, the TGI (CAKI-1 renal) was over 100 µM and the GI50 (U251 CNS) was over 100 µM. For the same compound, the TGI (U251 CNS) was over 100 µM, the GI50 (HCT-116 colon) was 42.2 µM and the TGI (HCT-116 colon) was over 100 µM. For the same compound, the GI50 (SK-OV-3 ovarian) was over 94.2 µM, the TGI (SK-OV-3 ovarian) was over 100 µM and the GI50 (SK-MEL-5 melanoma) was 18.3 µM. The TGI (SK-MEL-5 melanoma) was over 52.4 µM, the GI50 (K-562 leukemia) was over 100 µM and the TGI (K-562 leukemia) was over 100 µM. For the same compound, the GI50 (A498 renal) was 20.2 µM, the TGI (A498 renal) was over 100 µM and the GI50 (NCI-H23 lung) was over 100 µM. The TGI (NCI-H23 lung) was over 100 µM, the GI50 (MALME-3M melanoma) was over 100 µM and the TGI (MALME-3M melanoma) was over 100 µM. It also gave a GI50 (NCI-H226 lung) of over 44.6 µM, a TGI (NCI-H226 lung) of over 100 µM and a GI50 (M14 melanoma) of 97.5 µM. It also gave a TGI (M14 melanoma) of over 100 µM, a GI50 (LOX IMVI melanoma) of 52.7 µM and a TGI (LOX IMVI melanoma) of over 100 µM. For the same compound, the GI50 (HOP-62 NSCLC) was 64.5 µM, the TGI (HOP-62 NSCLC) was over 100 µM and the GI50 (HT29 colon) was 99.9 µM. The TGI (HT29 colon) was over 100 µM, the GI50 (NCI-H460 lung) was over 69 µM and the TGI (NCI-H460 lung) was over 100 µM. For the same compound, the GI50 (SF-539 CNS) was over 82.3 µM, the TGI (SF-539 CNS) was over 100 µM and the GI50 (OVCAR-3 ovarian) was over 100 µM. The TGI (OVCAR-3 ovarian) was over 100 µM, the TGI (CCRF-CEM leukemia) was over 100 µM and the GI50 (UO-31 renal) was over 100 µM. It also gave a TGI (UO-31 renal) of over 100 µM, a GI50 (OVCAR-8 ovarian) of over 58.6 µM and a TGI (OVCAR-8 ovarian) of over 100 µM. The GI50 (SR leukemia) was 44.5 µM, the TGI (SR leukemia) was over 100 µM and the GI50 (NCI-H522 lung) was over 94 µM. It also gave a TGI (NCI-H522 lung) of over 100 µM, a GI50 (A549 NSCLC) of over 93.1 µM and a TGI (A549 NSCLC) of over 100 µM. For the same compound, the GI50 (UACC-62 melanoma) was over 88.6 µM, the TGI (UACC-62 melanoma) was over 100 µM and the GI50 (MDA-MB-435) was over 100 µM. For the same compound, the TGI (MDA-MB-435) was over 100 µM, the GI50 (SNB-75 CNS) was over 100 µM and the TGI (SNB-75 CNS) was over 100 µM. It also gave a GI50 (RPMI-8226 leukemia) of 34.5 µM, a TGI (RPMI-8226 leukemia) of over 100 µM and a GI50 (SW-620 colon) of 59.9 µM. It also gave a TGI (SW-620 colon) of over 100 µM, a GI50 (NCI/ADR-RES ovarian) of over 100 µM and a TGI (NCI/ADR-RES ovarian) of over 100 µM. It also gave a GI50 (SNB-19 CNS) of over 40.2 µM, a TGI (SNB-19 CNS) of over 100 µM and a GI50 (MDA-MB-231 breast) of 99.1 µM. For the same compound, the TGI (MDA-MB-231 breast) was over 100 µM, the GI50 (TK-10 renal) was over 94.9 µM and the TGI (TK-10 renal) was over 100 µM. For the same compound, the GI50 (SF-268 CNS) was over 100 µM, the TGI (SF-268 CNS) was over 100 µM and the GI50 (ACHN renal) was 35.3 µM. For the same compound, the TGI (ACHN renal) was over 100 µM, the GI50 (COLO 205 colon) was 56.9 µM and the TGI (COLO 205 colon) was over 100 µM.

`C=C(CNCCc1ccc(O)cc1)[C@@H]1CC[C@]2(CO)CC[C@]3(C)[C@H](CC[C@@H]4[C@@]5(C)CCC(NCCc6ccc(O)cc6)C(C)(C)[C@@H]5CC[C@]43C)[C@@H]12` (stereo partly drawn) was tested, and the GI50 (PC-3 prostate) was 0.884 µM, the TGI (PC-3 prostate) was 2.35 µM and the GI50 (BT-549 breast) was 1.59 µM. The TGI (BT-549 breast) was 3.06 µM, the GI50 (OVCAR-4 ovarian) was 1.35 µM and the TGI (OVCAR-4 ovarian) was 2.7 µM. It also gave a GI50 (HOP-92 NSCLC) of 0.667 µM, a TGI (HOP-92 NSCLC) of 2.18 µM and a GI50 (DU-145 prostate) of 1.54 µM. The TGI (DU-145 prostate) was 3 µM, the GI50 (CAKI-1 renal) was 1.49 µM and the TGI (CAKI-1 renal) was 2.85 µM. The GI50 (SK-OV-3 ovarian) was 1.77 µM, the TGI (SK-OV-3 ovarian) was 3.26 µM and the GI50 (A498 renal) was 1.4 µM. For the same compound, the TGI (A498 renal) was 2.86 µM, the GI50 (NCI-H460 lung) was 0.191 µM and the TGI (NCI-H460 lung) was 0.362 µM. For the same compound, the GI50 (SF-539 CNS) was 1.31 µM, the TGI (SF-539 CNS) was 2.6 µM and the GI50 (UO-31 renal) was 1.16 µM. For the same compound, the TGI (UO-31 renal) was 2.44 µM, the GI50 (OVCAR-8 ovarian) was 1.61 µM and the TGI (OVCAR-8 ovarian) was 4.27 µM. It also gave a GI50 (UACC-62 melanoma) of 1.72 µM, a TGI (UACC-62 melanoma) of 3.26 µM and a GI50 (MDA-MB-435) of 0.873 µM. The TGI (MDA-MB-435) was 2.24 µM, the GI50 (SNB-75 CNS) was 1.25 µM and the TGI (SNB-75 CNS) was 2.54 µM. It also gave a GI50 (SW-620 colon) of 0.178 µM and a TGI (SW-620 colon) of 0.352 µM.
